Experimental data: patent US8742106B2 (Novartis AG, priority 2009, dated 2014)
pKi: −log10 of the molar value.

Assays:
human orexin 1 receptors = human orexin 1 receptors (Homo sapiens (Human), UniProt O43613); experiment: Calcium Accumulation in Cells (FLIPR), antagonism of orexin A; format: cell-based; conditions: for pKi: antagonism of orexin A, Cheng-Prusoff corrected, read-out: FLIPR hOx1R Ki
Protocol: (§1) Calcium Accumulation in Cells (FLIPR):
Cells expressing human orexin 1 or human orexin 2 receptors, were seeded at 8,000 cells/well in 384 well black-walled clear bottom, poly-D-lysine coated plates. After 24 h, the medium was removed and cells were washed once with phosphate buffered saline and serum-deprived overnight in assay buffer (130 mM NaCl, 5.4 mM KCl, 1.8 mM CaCl2, 0.8 mM MgSO4, 0.9 mM NaH2PO4, 25 mM glucose, 20 mM HEPES, pH 7.4) containing bovine serum albumin (1% w/v).
On the day of the experiment, the cells seeded in black plates were treated with assay buffer containing the Ca^2+ sensitive fluorescent dye Fluo4-AM (2 μM), and probenecid (0.1 mM). After 1 h plates were washed twice with, and resuspended in, assay buffer containing probenecid (0.1 mM) using a multi plate washer. The plates were placed into a FLIPR II (Fluorometric Imaging Plate Reader, Molecular Devices, Sunnyvale, Calif., USA) and baseline fluorescence (fluorescence light units, FLU) was measured (5 measurements, 2 S each; laser excitation 488 nm at 0.6-1 W, CCD camera exposure 0.4 s) before addition of buffer alone (basal) or containing test compounds (either compound of formula (I) or (I′) alone, agonist alone or agonist in the presence of various concentrations of compounds of formula (I) or (I′)). Fluorescence measurements were then continued every 1 S for 120 S followed by every 4 S for 240 S.
(§2) The measurements were typically made in two sequences:
(§3) In the first round, compounds of formula (I) or (I′) were tested alone, to detect possible agonist activity. Compounds of formula I or I′ were tested usually in a concentration range from 10^−9 M to 10^−5 M.
(§4) In the second round, performed one hour later (to allow for equilibration), Orexin A was tested either in the absence (calibration curves, Orexin A agonist controls) or in the presence of compounds of formula (I) or (I′) to determine antagonism.

human orexin 2 receptors = human orexin 2 receptors (Homo sapiens (Human), UniProt O43614); experiment: as above; format: cell-based; conditions: antagonism of orexin A, Cheng-Prusoff corrected; read-out: FLIPR hOx2R Ki
Protocol: as §1
Cells expressing human orexin 1 or human orexin 2 receptors, were seeded at 8,000 cells/well in 384 well black-walled clear bottom, poly-D-lysine coated plates.
On the day of the experiment, the cells seeded in black plates were treated with assay buffer containing the Ca^2+ sensitive fluorescent dye Fluo4-AM (2 μM), and probenecid (0.1 mM). After 1 h plates were washed twice with, and resuspended in, assay buffer containing probenecid (0.1 mM) using a multi plate washer. […] Fluorescence measurements were then continued every 1 S for 120 S followed by every 4 S for 240 S.
as §2, §3, §4

Sequence of human orexin 2 receptors (O43614 whole entry): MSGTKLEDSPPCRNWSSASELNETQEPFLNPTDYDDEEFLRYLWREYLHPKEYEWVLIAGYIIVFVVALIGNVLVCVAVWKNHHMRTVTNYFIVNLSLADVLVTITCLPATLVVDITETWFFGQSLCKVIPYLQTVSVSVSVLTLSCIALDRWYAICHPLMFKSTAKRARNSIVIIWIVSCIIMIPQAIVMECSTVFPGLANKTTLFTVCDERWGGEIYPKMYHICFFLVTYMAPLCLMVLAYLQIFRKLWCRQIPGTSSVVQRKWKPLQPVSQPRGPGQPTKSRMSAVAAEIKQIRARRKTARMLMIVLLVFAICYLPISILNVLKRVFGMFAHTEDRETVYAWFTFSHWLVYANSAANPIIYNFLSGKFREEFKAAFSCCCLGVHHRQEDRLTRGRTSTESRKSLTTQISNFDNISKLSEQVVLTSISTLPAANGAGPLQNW
Sequence of human orexin 1 receptors (O43613 whole entry): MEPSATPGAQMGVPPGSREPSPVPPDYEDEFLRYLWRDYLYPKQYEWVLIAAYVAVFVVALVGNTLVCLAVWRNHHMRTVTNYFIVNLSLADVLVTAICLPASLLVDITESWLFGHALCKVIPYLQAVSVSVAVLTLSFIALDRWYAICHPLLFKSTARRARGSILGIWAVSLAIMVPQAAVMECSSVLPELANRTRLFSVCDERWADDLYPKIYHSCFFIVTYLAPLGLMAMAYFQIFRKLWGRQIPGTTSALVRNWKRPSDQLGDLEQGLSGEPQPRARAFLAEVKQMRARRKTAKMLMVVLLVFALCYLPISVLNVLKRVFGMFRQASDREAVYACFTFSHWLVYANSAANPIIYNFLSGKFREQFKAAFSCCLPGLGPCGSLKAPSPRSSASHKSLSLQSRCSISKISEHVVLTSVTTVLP

Q: Cc1cc(OCC(=O)N[C@@H](C)c2ccccc2)nc2c1c(C1CC1)nn2C [Example 1.69, (S)-2-(3-cyclopropyl-1,4-dimethyl-1H-pyrazolo[3,4-b]pyridin-6-yloxy)-N-(1-phenylethyl)acetamide] was tested. Which pKi (human orexin 1 receptors) did it give?
A: Its pKi is 6.00.

Q: What about the pKi (human orexin 2 receptors) of the same compound?
A: Its pKi is 6.03.

Q: How did the pKi (human orexin 1 receptors) turn out when Cc1nn(C)c(C)c1C(C)NC(=O)COc1cc(C)c2c(C3CC3)nn(C)c2n1 (stereo not drawn) [Example 1.72, 2-(3-cyclopropyl-1,4-dimethyl-1H-pyrazolo[3,4-b]pyridin-6-yloxy)-N-(1-(1,3,5-trimethyl-1H-pyrazol-4-yl)ethyl)acetamide] was run?
A: Its pKi is 5.67.

Q: What about the pKi (human orexin 2 receptors) of the same compound?
A: The pKi was 5.91.

Q: Which inhibition at 10 µM (human orexin 1 receptors; measured at a concentration of 10 μM of compound, read-out: FLIPR hOx1R % inhibition value) does the source give for Cc1cc(OCC(=O)N[C@H]2CCc3ccccc32)nc2c1c(C1CC1)nn2C [Example 1.75, (S)-2-(3-cyclopropyl-1,4-dimethyl-1H-pyrazolo[3,4-b]pyridin-6-yloxy)-N-(2,3-dihydro-1H-inden-1-yl)acetamide] here?
A: Its inhibition at 10 µM is 27%.

Q: And the pKi (human orexin 2 receptors)?
A: The pKi was 6.09.

Q: How did the pKi (human orexin 1 receptors) turn out when Cc1n[nH]c(C)c1C(C)NC(=O)COc1cc(C)c2c(C3CC3)nn(C)c2n1 (stereo not drawn) [Example 1.76, 2-(3-cyclopropyl-1,4-dimethyl-1H-pyrazolo[3,4-b]pyridin-6-yloxy)-N-(1-(3,5-dimethyl-1H-pyrazol-4-yl)ethyl)acetamide] was run?
A: The pKi was 6.40.

Q: And the pKi (human orexin 2 receptors)?
A: The pKi was 6.22.

Q: How did the pKi (human orexin 1 receptors) turn out when C[C@H](NC(=O)CNc1cc(C(F)(F)F)c2c(-c3ccccc3)nn(C)c2n1)c1ccccc1 [Example 3.1, (S)-2-(1-methyl-3-phenyl-4-(trifluoromethyl)-1H-pyrazolo[3,4-b]pyridin-6-ylamino)-N-(1-phenylethyl)acetamide] was run?
A: The pKi was 6.45.

Q: And the pKi (human orexin 2 receptors)?
A: The pKi was 5.95.

Q: How did the pKi (human orexin 1 receptors) turn out when Cc1ccc([C@H](C)NC(=O)COc2cc(C)c3c(-c4ccnn4C)nn(C)c3n2)cc1 [Example 4.3, (S)-2-(1,4-dimethyl-3-(1-methyl-1H-pyrazol-5-yl)-1H-pyrazolo[3,4-b]pyridin-6-yloxy)-N-(1-p-tolylethyl)acetamide] was run?
A: The pKi was 5.57.

Q: What about the pKi (human orexin 2 receptors) of the same compound?
A: Its pKi is 5.65.

Q: Which results are given for Cc1ccc([C@H](C)NC(=O)COc2cc(C)c3c(-c4cnc(C)n4C)nn(C)c3n2)cc1 [Example 4.4, (S)-2-(3-(1,2-dimethyl-1H-imidazol-5-yl)-1,4-dimethyl-1H-pyrazolo[3,4-b]pyridin-6-yloxy)-N-(1-p-tolylethyl)acetamide]?
A: pKi (human orexin 1 receptors): 6.10; pKi (human orexin 2 receptors): 6.14

Q: How did the pKi (human orexin 1 receptors) turn out when Cc1ccc([C@H](C)NC(=O)COc2cc(C)c3c(-c4cc(C)nn4C)nn(C)c3n2)cc1 [Example 4.5, (S)-2-(3-(1,3-dimethyl-1H-pyrazol-5-yl)-1,4-dimethyl-1H-pyrazolo[3,4-b]pyridin-6-yloxy)-N-(1-p-tolylethyl)acetamide] was run?
A: Its pKi is 6.17.

Q: And the pKi (human orexin 2 receptors)?
A: Its pKi is 6.03.

Q: Which results are given for Cc1ccc([C@H](C)NC(=O)COc2cc(C)c3c(-c4cncn4C)nn(C)c3n2)cc1 [Example 4.11, (S)-2-(1,4-dimethyl-3-(1-methyl-1H-imidazol-5-yl)-1H-pyrazolo[3,4-b]pyridin-6-yloxy)-N-(1-p-tolylethyl)acetamide]?
A: pKi (human orexin 1 receptors): 5.36; pKi (human orexin 2 receptors): 5.79

Q: With COc1cncc(-c2nn(C)c3nc(OCC(=O)N[C@@H](C)c4ccc(C)cc4)cc(C)c23)n1 [Example 4.12, (S)-2-(3-(6-methoxypyrazin-2-yl)-1,4-dimethyl-1H-pyrazolo[3,4-b]pyridin-6-yloxy)-N-(1-p-tolylethyl)acetamide] as the compound, how does the pKi (human orexin 1 receptors) read?
A: The pKi was 6.62.

Q: What about the pKi (human orexin 2 receptors) of the same compound?
A: The pKi was 6.69.

Q: With Cc1ccc([C@H](C)NC(=O)COc2cc(C)c3c(-c4cn(C)cn4)nn(C)c3n2)cc1 [Example 4.13, (S)-2-(1,4-dimethyl-3-(1-methyl-1H-imidazol-4-yl)-1H-pyrazolo[3,4-b]pyridin-6-yloxy)-N-(1-p-tolylethyl)acetamide] as the compound, how does the pKi (human orexin 1 receptors) read?
A: Its pKi is 5.94.

Q: What about the pKi (human orexin 2 receptors) of the same compound?
A: The pKi was 6.20.

Q: Which results are given for Cc1nn(C)c(C)c1C(C)NC(=O)COc1cc(C(F)F)c2c(C3CC3)nn(C)c2n1 (stereo not drawn) [Example 6.9, 2-(3-cyclopropyl-4-(difluoromethyl)-1-methyl-1H-pyrazolo[3,4-b]pyridin-6-yloxy)-N-(1-(1,3,5-trimethyl-1H-pyrazol-4-yl)ethyl)acetamide]?
A: pKi (human orexin 1 receptors): 6.11; pKi (human orexin 2 receptors): 6.28
